The structures appear in SMILES notation.

The target of one series is hERG (Homo sapiens, UniProt Q12809). Put plainly: hERG assay (QPatch automated patch clamp, CHO cells). In kind it is cell-based. The note with it: CHO cells stably expressing hERG, 1, 3, 10 and 30 μM, tail current, room temperature; for IC50: read-out: hERG pIC50 (converted). The procedure: All experiments were performed on the QPatch automated patch clamp platform.
Series resistance (4-15 MΩ) was compensated by >80%.
In general terms: The hERG channel carries a current that helps repolarise heart muscle cells.

The next series addresses T1, human H4 receptor (Homo sapiens, UniProt Q9H3N8).
T1 construct: expressed in transfected cells; host or cells: HEKf cells infected with baculovirus
In words: H4 Antagonist Functional Dynamic Mass Redistribution Assay. It is filed as cell-based. Particulars: HEKf cells expressing human H4 receptor, antagonist mode vs histamine EC80, pKb by Cheng-Prusoff; for Kb: read-out: Human H4 DMR fpKb (converted). The procedure: H4 Antagonist Functional Dynamic Mass Redistribution Assay
HEKf cells were infected using baculovirus expressing the human H4 receptor, plated into fibronectin-coated EPIC plates at a density of 10,000 cells/well and incubated overnight at 37° C. The medium on cells was changed to […] HBSS with 20 mM HEPES per well and 30 nL DMSO were added per well by LabCyte ECHO acoustic dispensing. Following 2 h equilibration at room temperature, 30 nL of H4 ligands prepared in DMSO were stamped by LabCyte ECHO acoustic dispensing into seeded EPIC plates and cellular dynamic mass redistribution was monitored using a Corning EPIC plate reader. Following 45 min measurement, 30 nL/well of histamine EC80 was added and monitored to obtain antagonist assay data. Maximum baseline-corrected responses in pm were used to generate concentration response curves. EC50 values were generated using a 4-parameter logistical fit equation to quantify agonist potencies. Functional antagonist affinity values were generated using the Cheng-Prusoff equation to calculate a pKb value using the antagonist assay data.

T1 sequence (Q9H3N8 whole entry): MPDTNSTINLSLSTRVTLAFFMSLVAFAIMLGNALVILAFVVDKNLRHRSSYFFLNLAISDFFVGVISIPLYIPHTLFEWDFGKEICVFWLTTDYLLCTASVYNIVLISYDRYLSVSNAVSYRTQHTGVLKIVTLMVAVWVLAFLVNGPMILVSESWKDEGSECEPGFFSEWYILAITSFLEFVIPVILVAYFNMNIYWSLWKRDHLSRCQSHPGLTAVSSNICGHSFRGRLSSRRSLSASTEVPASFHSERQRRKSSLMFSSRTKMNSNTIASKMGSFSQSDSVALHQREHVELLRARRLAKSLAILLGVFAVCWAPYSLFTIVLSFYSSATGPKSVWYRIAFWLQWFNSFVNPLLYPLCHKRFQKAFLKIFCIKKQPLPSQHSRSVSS
hERG, sequence (Q12809 whole entry): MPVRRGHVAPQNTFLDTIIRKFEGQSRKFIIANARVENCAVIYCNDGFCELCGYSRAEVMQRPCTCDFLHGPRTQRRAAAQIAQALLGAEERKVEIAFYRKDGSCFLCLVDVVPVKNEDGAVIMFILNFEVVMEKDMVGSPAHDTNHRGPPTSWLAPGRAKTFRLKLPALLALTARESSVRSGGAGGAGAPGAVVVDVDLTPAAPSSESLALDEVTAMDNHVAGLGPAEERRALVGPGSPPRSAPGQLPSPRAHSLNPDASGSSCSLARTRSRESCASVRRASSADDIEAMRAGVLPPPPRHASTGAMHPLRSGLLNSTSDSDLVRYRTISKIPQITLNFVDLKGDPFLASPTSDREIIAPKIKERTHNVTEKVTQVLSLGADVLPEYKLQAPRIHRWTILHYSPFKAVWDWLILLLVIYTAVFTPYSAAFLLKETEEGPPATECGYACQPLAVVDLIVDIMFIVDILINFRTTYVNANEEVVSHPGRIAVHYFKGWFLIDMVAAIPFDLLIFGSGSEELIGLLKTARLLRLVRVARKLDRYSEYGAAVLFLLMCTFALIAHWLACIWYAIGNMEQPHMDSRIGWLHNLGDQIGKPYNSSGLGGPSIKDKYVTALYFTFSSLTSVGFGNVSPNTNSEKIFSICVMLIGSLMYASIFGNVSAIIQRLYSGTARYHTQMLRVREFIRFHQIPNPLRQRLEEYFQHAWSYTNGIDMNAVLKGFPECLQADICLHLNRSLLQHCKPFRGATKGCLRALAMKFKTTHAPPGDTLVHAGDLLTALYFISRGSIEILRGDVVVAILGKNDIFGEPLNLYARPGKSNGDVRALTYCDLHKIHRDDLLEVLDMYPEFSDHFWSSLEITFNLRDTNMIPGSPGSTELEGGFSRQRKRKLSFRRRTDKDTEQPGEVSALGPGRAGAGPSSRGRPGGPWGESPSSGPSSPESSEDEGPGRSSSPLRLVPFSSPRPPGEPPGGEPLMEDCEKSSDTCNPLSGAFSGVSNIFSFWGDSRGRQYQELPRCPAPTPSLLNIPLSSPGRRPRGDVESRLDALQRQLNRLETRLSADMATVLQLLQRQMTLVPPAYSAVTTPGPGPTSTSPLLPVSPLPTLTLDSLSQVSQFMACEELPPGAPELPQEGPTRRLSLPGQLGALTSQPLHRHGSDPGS

For `Nc1nc(-c2cnn(C(F)(F)F)c2)cc(N2CC(N)C2)n1` [Example 6, 4-(3-Aminoazetidin-1-yl)-6-(1-(trifluoromethyl)-1H-pyrazol-4-yl)pyrimidin-2-amine], on hERG, the IC50 is over 100000 nM. Also, the Kb at human H4 receptor was 12.6 nM.
In the case of `CCn1cc(-c2cc(N3CC(NC)C3)nc(N)n2)cn1` [Example 3, 4-(1-Ethyl-1H-pyrazol-4-yl)-6-(3-(methylamino)azetidin-1-yl)pyrimidin-2-amine], at hERG, the IC50 is over 100000 nM. Besides, the Kb at human H4 receptor was 3.98 nM.
The matching figures for `CNC1CN(c2cc(-c3cnn(CC(F)F)c3)nc(N)n2)C1` [Example 9, 4-(1-(2,2-Difluoroethyl)-1H-pyrazol-4-yl)-6-(3-(methylamino)azetidin-1-yl)pyrimidin-2-amine]: over 100000 nM and 12.6 nM.
The matching figures for `CCn1cc(-c2cc(N3CC(NC)C3)nc(N)n2)c(C)n1` [Example 13, 4-(1-Ethyl-3-methyl-1H-pyrazol-4-yl)-6-(3-(methylamino)azetidin-1-yl)pyrimidin-2-amine]: over 100000 nM and 10 nM.
In the same order, the values of `CN[C@@H]1CCN(c2cc(NCC3CC3)nc(N)n2)C1` [PF-3893787, reference compound] are 7940 nM and 0.794 nM.
On to `Cc1cc(C)c2nc(-c3cnc(NCCCC4CCN(C)CC4)nc3C)[nH]c2c1` [Toreforant, reference compound], for which the IC50 on hERG was 3160 nM. In addition, the Kb on human H4 receptor is 12.6 nM.
As for `CNC1CN(c2cc(-c3cn(CC(F)(F)F)nc3C)nc(N)n2)C1` [Example 19, 4-(3-Methyl-1-(2,2,2-trifluoroethyl)-1H-pyrazol-4-yl)-6-(3-(methylamino)azetidin-1-yl)pyrimidin-2-amine], on hERG, the IC50 was over 31600 nM. For the same compound, the Kb on human H4 receptor was 50.1 nM.
The matching figures for `CNC1CN(c2cc(-c3[nH]nc(Cl)c3Cl)nc(N)n2)C1` [Example 42, 4-(4,5-Dichloro-1H-pyrazol-3-yl)-6-(3-(methylamino)azetidin-1-yl)pyrimidin-2-amine]: over 100000 nM and 6.31 nM.
The matching figures for `CNC1CN(c2cc(-c3cn(C(C)C)nc3C)nc(N)n2)C1` [Example 11, 4-(1-Isopropyl-3-methyl-1H-pyrazol-4-yl)-6-(3-(methylamino)azetidin-1-yl)pyrimidin-2-amine]: over 100000 nM and 10 nM.
In the same order, the values of `CNC1CN(c2cc(-c3cn(C)nc3Cl)nc(N)n2)C1` [Example 29, 4-(3-Chloro-1-methyl-1H-pyrazol-4-yl)-6-(3-(methylamino)azetidin-1-yl)pyrimidin-2-amine] are over 100000 nM and 1.58 nM.
Turning to `CNC1CN(c2cc(-c3cn(C)nc3Br)nc(N)n2)C1` [Example 31, 4-(3-Bromo-1-methyl-1H-pyrazol-4-yl)-6-(3-(methylamino)azetidin-1-yl)pyrimidin-2-amine], the IC50 at hERG was over 31600 nM. For the same compound, the Kb at human H4 receptor was 7.94 nM.
With `CNC1CN(c2cc(-c3cn(C(F)F)nc3C)nc(N)n2)C1` [Example 4, 4-(1-(Difluoromethyl)-3-methyl-1H-pyrazol-4-yl)-6-(3-(methylamino)azetidin-1-yl)pyrimidin-2-amine], on hERG, the IC50 is over 100000 nM. Further, the Kb on human H4 receptor was 2.51 nM.
`CCc1cc(-c2cc(N3CC(NC)C3)nc(N)n2)n[nH]1` [Example 41, 4-(5-Ethyl-1H-pyrazol-3-yl)-6-(3-(methylamino)azetidin-1-yl)pyrimidin-2-amine]: on hERG, the IC50 is over 31600 nM. The Kb on human H4 receptor is 7.94 nM.
In the case of `CN[C@@H]1CCN(c2cc(-c3cnn(C)c3Cl)nc(N)n2)C1` [Example 5, (R)-4-(5-Chloro-1-methyl-1H-pyrazol-4-yl)-6-(3-(methylamino)pyrrolidin-1-yl)pyrimidin-2-amine], the IC50 on hERG was over 100000 nM. In addition, the Kb on human H4 receptor is 3.98 nM.
Regarding `CN1CCN(C(=O)c2cc3cc(Cl)ccc3[nH]2)CC1` [JNJ-7777120, reference compound], the IC50 on hERG is at least 100000 nM.
As for `CNC1CN(c2cc(-c3cc(Cl)nn3C)nc(N)n2)C1` [Example 26, 4-(3-Chloro-1-methyl-1H-pyrazol-5-yl)-6-(3-(methylamino)azetidin-1-yl)pyrimidin-2-amine], the IC50 on hERG is over 100000 nM. The Kb at human H4 receptor is 15.8 nM.
As for `CCn1ncc(-c2cc(N3CC(NC)C3)nc(N)n2)c1C` [Example 21, 4-(1-Ethyl-5-methyl-1H-pyrazol-4-yl)-6-(3-(methylamino)azetidin-1-yl)pyrimidin-2-amine], the IC50 on hERG was over 100000 nM. Further, the Kb on human H4 receptor was 2.51 nM.
As for `CCc1cc(-c2cc(N3CC(NC)C3)nc(N)n2)n(C)n1` [Example 25, 4-(3-Ethyl-1-methyl-1H-pyrazol-5-yl)-6-(3-(methylamino)azetidin-1-yl)pyrimidin-2-amine], on human H4 receptor, the Kb was 100 nM.
In the case of `CNC1CN(c2cc(-c3cc(C(F)(F)F)nn3C)nc(N)n2)C1` [Example 27, 4-(1-Methyl-3-(trifluoromethyl)-1H-pyrazol-5-yl)-6-(3-(methylamino)azetidin-1-yl)pyrimidin-2-amine], the IC50 on hERG is 44700 nM. Moreover, the Kb at human H4 receptor is 15.8 nM.
Turning to `CNC1CN(c2cc(-c3c[nH]nc3C(F)(F)F)nc(N)n2)C1` [Example 37, 4-(3-(Methylamino)azetidin-1-yl)-6-(3-(trifluoromethyl)-1H-pyrazol-4-yl)pyrimidin-2-amine], on hERG, the IC50 is over 31600 nM. The Kb on human H4 receptor was 31.6 nM.
In the same order, the values of `CNC1CN(c2cc(-c3cc(C)nn3C)nc(N)n2)C1` [Example 24, 4-(1,3-Dimethyl-1H-pyrazol-5-yl)-6-(3-(methylamino)azetidin-1-yl)pyrimidin-2-amine] are over 100000 nM and 126 nM.
With `CC(C)c1cc(N2CC[C@@H](N)C2)nc(N)n1` [JNJ-39758979, reference compound], on hERG, the “hERG pIC50” value was at most 4.0. Further, the “Human H4 DMR fpKb” value on human H4 receptor worked out at 8.5.
In the case of `CCc1[nH]nc(-c2cc(N3CC(NC)C3)nc(N)n2)c1C` [Example 40, 4-(5-Ethyl-4-methyl-1H-pyrazol-3-yl)-6-(3-(methylamino)azetidin-1-yl)pyrimidin-2-amine], the IC50 on hERG was over 31600 nM.
`CNC1CN(c2cc(-c3cnn(CCF)c3)nc(N)n2)C1` [Example 10, 4-(1-(2-Fluoroethyl)-1H-pyrazol-4-yl)-6-(3-(methylamino)azetidin-1-yl)pyrimidin-2-amine]: the IC50 on hERG was over 100000 nM. The Kb at human H4 receptor was 5.01 nM.
The matching figures for `CNC1CN(c2cc(-c3cnn(C(C)C)c3C)nc(N)n2)C1` [Example 22, 4-(1-Isopropyl-5-methyl-1H-pyrazol-4-yl)-6-(3-(methylamino)azetidin-1-yl)pyrimidin-2-amine]: over 100000 nM and 7.94 nM.
For the compound `CNC1CN(c2cc(-c3nn(C)cc3C)nc(N)n2)C1` [Example 8, 4-(1,4-Dimethyl-1H-pyrazol-3-yl)-6-(3-(methylamino)azetidin-1-yl)pyrimidin-2-amine], at hERG, the IC50 is 23400 nM. The Kb on human H4 receptor is 7.94 nM.
Take `CNC1CN(c2cc(-c3cn[nH]c3)nc(N)n2)C1` [Example 38, 4-(3-(Methylamino)azetidin-1-yl)-6-(1H-pyrazol-4-yl)pyrimidin-2-amine]: on hERG, the IC50 is over 31600 nM. Also, at human H4 receptor, the Kb was 5.01 nM.

These data come from US20230167094A1, “H4 ANTAGONIST COMPOUNDS” (Heptares Therapeutics Limited, priority 2020, published 2023).
